{"source": "patent WO2023227069A1", "about": "“Polidocanol with single molecular weight, and use thereof” (Jenkem Technology Co Ltd, priority 2022, dated 2023)", "key": {"[1]": {"system": "HUVEC (human umbilical vein endothelial cells)", "test": "Cytotoxicity on HUVEC (CCK8), IC50 of polidocanols with different chain lengths", "format": "cell-based", "details": "in words, values of Table 8 not in this copy"}, "[2]": {"test": "Foaming efficiency of 1% solutions (foam drainage, half-life, coalescence)", "format": "physicochemical", "details": "1% solution, 20 pumps"}, "rabbit ear marginal vein": {"system": "rabbit ear marginal vein", "test": "Venous sclerosis after single injection of foam preparation into rabbit marginal ear vein (effective rate, appearance)", "format": "in vivo, New Zealand rabbit", "details": "for Effective rate of venous sclerosis compared with positive control low-dose group: in words"}, "[3]": {"system": "marginal ear vein of rabbits", "test": "Venous pathological sections 14 days after injection into rabbit marginal ear vein", "format": "in vivo, New Zealand rabbit", "details": "for Pathological score of rabbit ear blood vessels compared with positive low-dose control group: in words"}, "[4]": {"details": "14 days after intravenous injection into rabbit ear margin"}}, "note": "Where two headings read alike, the source gives them in different places.", "data": [{"compound": "CCCCCCCCCCCCOCCOCCOCCOCCO", "note": "[DD-PEG4-OH]", "values": [{"measurement": "IC50 value compared with polidocanol group", "setting": "[1]", "value": "greater than that of the polidocanol group"}, {"measurement": "Foam half-life time (FHT), in words", "setting": "[2]; even if a small amount of foam is formed", "value": "disappear in a very short time"}, {"measurement": "Foam formation", "setting": "[2]; in words, listed as P4", "value": "it is difficult for the P4 sample to form foam"}]}, {"compound": "CCCCCCCCCCCCOCCOCCOCCOCCOCCOCCOCCOCCO", "note": "[DD-PEG8-OH]", "values": [{"measurement": "Appearance of veins", "setting": "rabbit ear marginal vein; 14 days after administration", "value": "some Blood vessels are blocked"}, {"measurement": "Effective rate of venous sclerosis", "setting": "rabbit ear marginal vein; [4]", "value": "above 83.33%"}, {"measurement": "Effective rate of venous sclerosis compared with positive control low-dose group", "setting": "rabbit ear marginal vein; 14 days", "value": "not lower than the positive control low-dose group"}, {"measurement": "Appearance of veins", "setting": "rabbit ear marginal vein; 21 days after administration", "value": "some blood vessels in the rabbit ear Completely blocked"}, {"measurement": "Effective rate of venous sclerosis compared with positive control low-dose group", "setting": "rabbit ear marginal vein; 21 days", "value": "higher than the positive control low-dose group"}, {"measurement": "IC50 value compared with polidocanol group", "setting": "[1]", "value": "smaller than those of the polidocanol group"}, {"measurement": "Pathological changes in blood vessels, high magnification", "setting": "[3]", "value": "a large number of fibroblast proliferations can be seen in the lumen, and red blood cells are scattered among local fibroblasts; new capillaries and macrophages that phagocytose hemosiderin can be seen locally"}, {"measurement": "Pathological changes in blood vessels, low magnification", "setting": "[3]", "value": "The tissue structure of each layer of the wall is unclear and the blood vessel lumen is occluded"}, {"measurement": "Pathological score of rabbit ear blood vessels compared with positive low-dose control group", "setting": "[3]", "value": "higher than those of the positive low-dose control group"}]}, {"compound": "CCCCCCCCCCCCOCCOCCOCCOCCOCCOCCOCCOCCOCCO", "note": "[DD-PEG9-OH]", "values": [{"measurement": "Appearance of veins", "setting": "rabbit ear marginal vein; 14 days after administration, low-dose group", "value": "some Blood vessels are blocked"}, {"measurement": "Effective rate of venous sclerosis", "setting": "rabbit ear marginal vein; 14 days, P9 high-dose group", "value": "above 83.33%"}, {"measurement": "Effective rate of venous sclerosis compared with positive control low-dose group", "setting": "rabbit ear marginal vein; 14 days, P9 high-dose group", "value": "not lower than the positive control low-dose group"}, {"measurement": "Effective rate of venous sclerosis", "setting": "rabbit ear marginal vein; 14 days, P9 low-dose group", "value": "above 83.33%"}, {"measurement": "Effective rate of venous sclerosis compared with positive control low-dose group", "setting": "rabbit ear marginal vein; 14 days, P9 low-dose group", "value": "not lower than the positive control low-dose group"}, {"measurement": "Appearance of veins", "setting": "rabbit ear marginal vein; 21 days after administration, low-dose group", "value": "some blood vessels in the rabbit ear Completely blocked"}, {"measurement": "Effective rate of venous sclerosis compared with positive control low-dose group", "setting": "rabbit ear marginal vein; 21 days, P9 high-dose group", "value": "higher than the positive control low-dose group"}, {"measurement": "Effective rate of venous sclerosis compared with positive control low-dose group", "setting": "rabbit ear marginal vein; 21 days, P9 low-dose group", "value": "higher than the positive control low-dose group"}, {"measurement": "IC50 value compared with polidocanol group", "setting": "[1]", "value": "smaller than those of the polidocanol group"}, {"measurement": "Pathological score of rabbit ear blood vessels compared with positive low-dose control group", "setting": "[3]; P9 high-dose group", "value": "higher than those of the positive low-dose control group"}, {"measurement": "Pathological score of rabbit ear blood vessels compared with positive low-dose control group", "setting": "[3]; P9 low-dose group", "value": "higher than those of the positive low-dose control group"}, {"measurement": "Pathological changes in blood vessels, high magnification", "setting": "[3]; high-dose group", "value": "a large number of fibroblast proliferations can be seen in the lumen, and red blood cells are scattered among local fibroblasts; new capillaries and macrophages that phagocytose hemosiderin can be seen locally"}, {"measurement": "Pathological changes in blood vessels, low magnification", "setting": "[3]; high-dose group", "value": "The tissue structure of each layer of the wall is unclear and the blood vessel lumen is occluded"}, {"measurement": "Pathological changes in blood vessels, high magnification", "setting": "[3]; low-dose group", "value": "a large number of fibroblast proliferations can be seen in the lumen, and red blood cells are scattered among local fibroblasts; new capillaries and macrophages that phagocytose hemosiderin can be seen locally"}, {"measurement": "Pathological changes in blood vessels, low magnification", "setting": "[3]; low-dose group", "value": "The tissue structure of each layer of the wall is unclear and the blood vessel lumen is occluded"}]}, {"compound": "CCCCCCCCCCCCOCCOCCOCCOCCOCCOCCOCCOCCOCCOCCO", "note": "[DD-PEG10-OH]", "values": [{"measurement": "Effective rate of venous sclerosis", "setting": "rabbit ear marginal vein; [4]", "value": "above 83.33%"}, {"measurement": "Effective rate of venous sclerosis compared with positive control low-dose group", "setting": "rabbit ear marginal vein; 14 days", "value": "not lower than the positive control low-dose group"}, {"measurement": "Effective rate of venous sclerosis compared with positive control low-dose group", "setting": "rabbit ear marginal vein; 21 days", "value": "higher than the positive control low-dose group"}, {"measurement": "IC50 value compared with polidocanol group", "setting": "[1]", "value": "smaller than those of the polidocanol group"}, {"measurement": "Foam drainage time (FDT), precipitation time of liquid, in words", "setting": "[2]; relative to other samples", "value": "relatively slow"}, {"measurement": "Pathological changes in blood vessels, high magnification", "setting": "[3]", "value": "a large number of fibroblast proliferations can be seen in the lumen, and red blood cells are scattered among local fibroblasts; new capillaries and macrophages that phagocytose hemosiderin can be seen locally"}, {"measurement": "Pathological changes in blood vessels, low magnification", "setting": "[3]", "value": "The tissue structure of each layer of the wall is unclear and the blood vessel lumen is occluded"}, {"measurement": "Pathological score of rabbit ear blood vessels compared with positive low-dose control group", "setting": "[3]", "value": "higher than those of the positive low-dose control group"}]}, {"compound": "CCCCCCCCCCCCOCCOCCOCCOCCOCCOCCOCCOCCOCCOCCOCCO", "note": "[DD-PEG11-OH]", "values": [{"measurement": "Effective rate of venous sclerosis", "setting": "rabbit ear marginal vein; [4]", "value": "above 83.33%"}, {"measurement": "Effective rate of venous sclerosis compared with positive control low-dose group", "setting": "rabbit ear marginal vein; 14 days", "value": "not lower than the positive control low-dose group"}, {"measurement": "Effective rate of venous sclerosis compared with positive control low-dose group", "setting": "rabbit ear marginal vein; 21 days", "value": "higher than the positive control low-dose group"}, {"measurement": "IC50 value compared with polidocanol group", "setting": "[1]", "value": "smaller than those of the polidocanol group"}, {"measurement": "Pathological changes in blood vessels, high magnification", "setting": "[3]", "value": "a large number of fibroblast proliferations can be seen in the lumen, and red blood cells are scattered among local fibroblasts; new capillaries and macrophages that phagocytose hemosiderin can be seen locally"}, {"measurement": "Pathological changes in blood vessels, low magnification", "setting": "[3]", "value": "The tissue structure of each layer of the wall is unclear and the blood vessel lumen is occluded"}, {"measurement": "Pathological score of rabbit ear blood vessels compared with positive low-dose control group", "setting": "[3]", "value": "higher than those of the positive low-dose control group"}]}, {"compound": "CCCCCCCCCCCCOCCOCCOCCOCCOCCOCCOCCOCCOCCOCCOCCOCCO", "note": "[DD-PEG12-OH]", "values": [{"measurement": "IC50 value compared with polidocanol group", "setting": "[1]", "value": "smaller than those of the polidocanol group"}]}, {"compound": "CCCCCCCCCCCCOCCOCCOCCOCCOCCOCCOCCOCCOCCOCCOCCOCCOCCOCCOCCOCCOCCOCCOCCOCCOCCOCCOCCOCCO", "note": "[DD-PEG24-OH]", "values": [{"measurement": "IC50 value compared with polidocanol group", "setting": "[1]", "value": "greater than that of the polidocanol group"}, {"measurement": "Foam coalescence time (FCT), time for foam to completely disappear", "setting": "[2]", "value": "about 4.25 min"}]}]}
